Values of other authors as cited in patent US8815303B2, “Multifunctional compositions having combined insecticidal, miticidal and fungicidal activity” (priority 2004, dated 2014).
Where two headings read alike, the source gives them in different places.

How the values were obtained:
[1] = tested on: powdery mildew and/or blackspot; conditions: for management of powdery mildew and/or blackspot: weekly sprays of 0.5% (w/w) aqueous solution
rose powdery mildew = conditions: intact plants, after one adaxial foliar spray application
[2] = 0.5% concentration (the more effective dose)

SMILES	powdery mildew severity ([1]; 0.25% concentration)	powdery mildew severity [1, 2]	management of powdery mildew and/or blackspot [1]	host epidermal layers (rose powdery mildew)	superficial pathogen structures (rose powdery mildew)
O=C([O-])O.[Na+] [sodium bicarbonate]	significantly reduce	significantly reduce	significantly managed	–	–
O=C([O-])O.[K+] [potassium bicarbonate]	significantly reduce	significantly reduce	significantly managed	recover completely from infection	eradicated
